Assay results as given in patent US11452708B2, “Discovery of potent [alpha]-glucosidase inhibitors from Heterophragma adenophyllum” (KING ABDULAZIZ UNIVERSITY, priority 2021, dated 2022).
Several values for one entry are separate records, joined by “and”; a condition that tells them apart may be missing. Equal entries are not always repeated. Where two headings read alike, the source gives them in different places.

Target: α-glucosidase (E.C.3.2.1.20) (Saccharomyces cerevisiae, UniProt P53341)
Assay: α-glucosidase inhibitory activity (p-nitrophenyl-α-d-glucopyranoside substrate, absorbance at 400 nm)
Assay type: biochemical
Conditions: in vitro; for IC50: 0.1 M phosphate buffer, pH 6.8, 37° C., standard acarbose, unit inferred
Method: . The substrate (0.7 Mm, p-nitrophenyl-α-d-glucopyranoside) was then mixed in and the difference in absorbance at 400 nm was recorded using a spectrophotometer for 30 minutes. The tested extracts and compound 1 were substituted with DMSO-d6 (7.5%) in the control. The standard drug used in this experiment was acarbose. The percentage activity was calculated by using the following formula.

[1] = read-out: IC50, α-glucosidase inhibition

Chain of α-glucosidase (E.C.3.2.1.20) (P53341 whole entry): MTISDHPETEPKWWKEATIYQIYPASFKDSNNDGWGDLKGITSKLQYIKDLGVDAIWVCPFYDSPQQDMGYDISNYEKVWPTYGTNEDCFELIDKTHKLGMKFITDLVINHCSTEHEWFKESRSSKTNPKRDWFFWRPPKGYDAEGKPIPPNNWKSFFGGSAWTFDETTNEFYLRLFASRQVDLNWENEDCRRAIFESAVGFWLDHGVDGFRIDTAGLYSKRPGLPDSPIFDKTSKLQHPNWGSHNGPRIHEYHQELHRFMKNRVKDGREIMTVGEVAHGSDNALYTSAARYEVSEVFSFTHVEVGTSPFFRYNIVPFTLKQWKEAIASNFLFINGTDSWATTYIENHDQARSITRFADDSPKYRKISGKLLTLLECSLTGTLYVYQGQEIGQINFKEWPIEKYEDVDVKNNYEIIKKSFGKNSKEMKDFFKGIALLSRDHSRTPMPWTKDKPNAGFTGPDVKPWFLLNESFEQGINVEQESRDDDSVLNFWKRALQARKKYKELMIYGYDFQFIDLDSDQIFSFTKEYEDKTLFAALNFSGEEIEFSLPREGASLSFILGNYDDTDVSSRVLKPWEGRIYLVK

Row | Compound | IC50 [1] | other results
1 | CC(C)=CCC1=C(O)C(=O)c2ccccc2C1=O [Compound 1, lapachol] | 33.1 ± 2.41 µM | –
2 | COC(=O)C1(O)c2ccccc2C(=O)C1(O)CC=C(C)C (stereo not shown) [Compound 3, Methyl 1,2-dihydroxy-2-(3-methylbut-2-enyl)-3-oxo-2,3-dihydroxo-1H-indene-1-carboxylate] | – | IC50 (IC50, α-glucosidase inhibition): 78.3 µM and 117 µM
3 | CC1(C)CCC2=C(O1)C(=O)c1ccccc1C2=O [Compound 4, α-lapachone] | 117 µM and 78.3 µM | –
4 | peshawaraquinone [Compound 2] | – | α-glucosidase inhibitory activity (in words) (comparison among the tested compounds 1-4): least active
